Literature values as cited in US9700872B1, “Superpolar chromatographic stationary phases and extraction sorbents and their methods of synthesis” (THE FLORIDA INTERNATIONAL UNIVERSITY BOARD OF TRUSTEES, priority 2016, dated 2017).

Settings: octanol/water; Top 100 EPA Priority Pollutants (Table 2)

Structure (SMILES)	Log Kow
C1=Cc2cccc3cccc1c23 [Acenaphthylene]	3.7
c1cc2c3c(cccc3c1)CC2 [Acenaphthene]	3.9
Clc1ccccc1 [Chlorobenzene]	2.84
Clc1ccccc1Cl [1,2-Dichlorobenzene]	3.4
c1ccc2c(c1)Cc1ccccc1-2 [Fluorene]	4.2
CCCl [Chloroethane]	1.2
c1ccc2c(c1)cc1ccc3cccc4ccc2c1c34 [Benzo(a)pyrene]	6
c1ccc2cc3ccccc3cc2c1 [Anthracene]	4.4
CCOC(=O)c1ccccc1C(=O)OCC [Diethyl phthalate]	2.5
Brc1ccc(Oc2ccccc2)cc1 [4-Bromophenyl phenyl ether]	4.4
Clc1ccc(Oc2ccccc2)cc1 [4-Chlorophenyl phenyl ether]	4.3
c1ccc2c(c1)ccc1ccccc12 [Phenanthrene]	4.5
CCCCOC(=O)c1ccccc1C(=O)OCCCC [Di-N-butyl phthalate]	4.7
CC1=CC(=O)CC(C)(C)C1 [Isophorone]	1.6
CCCCC(CC)COC(=O)c1ccccc1C(=O)OCC(CC)CCCC (centres unmarked) [Bis(2-Ethylhexyl)phthalate]	7.4

Same assay, conditions: octanol/water; exemplary polyhydroxy molecules (Table 1)

Log Kow	Structure (SMILES)
−1.5	OC[C@H]1O[C@H](O[C@]2(CCl)O[C@H](CCl)[C@@H](O)[C@@H]2O)[C@H](O)[C@@H](O)[C@H]1Cl [Sucralose]
−3.1	OC[C@@H](O)[C@@H](O)[C@H](O)[C@@H](O)CO [Sorbitol]
